Laboratory results: patent publication US8808702B2, “Sulfide, sulfoxide and sulfone chalcone analogues, derivatives thereof and therapeutic uses thereof” (Temple University-of the Commonwealth System of Higher …, priority 2006, dated 2014)
Read-outs that look alike come from different tables or passages of the source.

What was measured:
DU145 (prostate cancer) = test: Effect of compounds on tumor cell lines (assay of Latham et al.), DU145; assay type: cell-based; details: Homo sapiens, DU-145, DU145 cells, examined 96 hours after treatment, 1 μM to 100 μM in DMSO, read-out: DU 145 potency (IC50)
Summary of the method: (§1)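 K562 or DU145 cells plated at 2.5×10^4 cells/well, treated 24 h later with compound in DMSO at 1 μM to 100 μM (0.1 μM to 100 μM for one compound). Activity judged by microscopic observation after 96 h; where needed, viable cells counted by trypan blue exclusion.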

[1] = tested on: K562 (chronic myelogenous leukaemia); test: Effect of compounds on tumor cell lines (assay of Latham et al.), K562; assay type: cell-based; details: Homo sapiens, K562 cells, examined 96 hours after treatment, 1 μM to 100 μM in DMSO, read-out: K 562 potency (IC50)
Summary of the method: as §1

| Structure (SMILES) | IC50 (DU145 (prostate cancer); Table 1) [µM] | melting point [°C] | IC50 ([1]; Table 1) [µM] | IC50 (DU145 (prostate cancer); Table 4) [µM] | IC50 ([1]; Table 4) [µM] |
| --- | --- | --- | --- | --- | --- |
| O=C(/C(=C\c1ccc(I)cc1)Sc1ccc(Br)cc1)c1ccc(Br)cc1 [Example 45, (E)-1-(4-bromophenyl)-2-(4-bromophenylthio)-3-(4-Iodophenyl)-prop-2-en-1-one] | 1 to 10 | 128 to 130 | 1 to 10 |  |  |
| COc1cc(OC)c(/C=C(\C(=O)c2ccc(Cl)cc2)S(=O)(=O)Cc2ccccc2Cl)c(OC)c1 [Example 357] |  | 185 to 192 |  | > 100 | 25 to 50 |
| COc1cc(/C=C(\C(=O)c2ccc(Cl)cc2)S(=O)(=O)Cc2ccccc2Cl)cc(OC)c1 [Example 359] |  | 133 to 138 |  | > 100 | 50 to 100 |
| O=C(/C(=C\c1ccc(Br)cc1)S(=O)(=O)Cc1ccccc1Cl)c1ccc(Cl)cc1 [Example 360] |  | 186 to 192 |  | 25 to 50 | 25 to 50 |
| COc1ccc(/C=C(\C(=O)c2ccc(Cl)cc2)S(=O)(=O)Cc2ccc(Cl)cc2)c(OC)c1OC [Example 375] |  | 148 to 151 |  | 10 to 25 | 1 to 10 |
| O=C(/C(=C\c1cc(Cl)cc(Cl)c1Cl)S(=O)(=O)Cc1ccc(Cl)cc1)c1ccc(Br)cc1 [Example 376] |  | 181 to 188 |  | 1 to 10 | 1 to 10 |
| COc1cc(OC)c(/C=C(\C(=O)c2ccc(Br)cc2)S(=O)(=O)Cc2ccc(Cl)cc2)c(OC)c1 [Example 378] |  | 207 to 210 |  | 25 to 50 | 25 to 50 |
| Cc1ccc(C)c(/C=C(\C(=O)c2ccc(Cl)cc2)S(=O)(=O)Cc2ccc(Cl)cc2)c1 [Example 380] |  | 129 to 136 |  | 10 to 25 | 10 to 25 |
| O=C(/C(=C\c1ccccc1OCc1ccccc1)S(=O)(=O)Cc1ccc(Cl)cc1)c1ccc(Br)cc1 [Example 381] |  | 136 to 142 |  | 10 to 25 | 1 to 10 |
| COc1ccc(/C=C(\C(=O)c2ccc(Br)cc2)S(=O)(=O)Cc2ccc(Cl)cc2)c(O)c1 [Example 382] |  | 72 to 78 |  | 10 to 25 | 10 to 25 |
| COc1ccccc1/C=C(\C(=O)c1ccc([N+](=O)[O-])cc1)S(=O)(=O)Cc1ccc(Cl)cc1 [Example 384] |  | 136 to 141 |  | 10 to 25 | 10 to 25 |
| CCOc1cc(/C=C(\C(=O)c2ccc(Cl)cc2)S(=O)(=O)Cc2ccc(Cl)cc2)ccc1O [Example 386] |  | 134 to 139 |  | 10 to 25 | 10 to 25 |
| O=C(/C(=C\c1ccc(OCc2ccccc2)cc1)S(=O)(=O)Cc1ccc(Cl)cc1)c1ccc(Cl)cc1 [Example 391] |  | 91 to 99 |  | 1 to 10 | 1 to 10 |
| O=C(/C(=C\c1ccc(Br)cc1)S(=O)(=O)Cc1ccc(Cl)cc1)c1ccc(Cl)cc1 [Example 392] |  | 100 to 103 |  | 10 to 25 | 10 to 25 |
| CSc1ccc(/C=C(\C(=O)c2ccc(Cl)cc2)S(=O)(=O)Cc2ccc(Cl)cc2)cc1 [Example 394] |  | 94 to 108 |  | 10 to 25 | 10 to 25 |
| COc1ccc(/C=C(\C(=O)c2ccc(Br)cc2)S(=O)(=O)Cc2ccc(Cl)cc2)cc1 [Example 395] |  | 152 to 155 |  | 25 to 50 | 10 to 25 |
| COc1cc(OC)c(/C=C(\C(=O)c2ccc(Br)cc2)S(=O)(=O)Cc2ccc(F)cc2)c(OC)c1 [Example 399] |  | 176 to 182 |  | 50 to 100 | 50 to 100 |
| O=C(/C(=C\c1cc([N+](=O)[O-])ccc1F)S(=O)(=O)Cc1ccc(F)cc1)c1ccc(Br)cc1 [Example 403] |  | 172 to 177 |  | > 100 | 50 to 100 |
| O=C(/C(=C\c1c[nH]c2ccccc12)S(=O)(=O)Cc1ccc(F)cc1)c1ccc(Cl)cc1 [Example 406] |  | > 200 |  | 50 to 100 | 50 to 100 |
| Cc1ccsc1/C=C(\C(=O)c1ccc(Cl)cc1)S(=O)(=O)Cc1ccc(F)cc1 [Example 407] |  | 146 to 158 |  | 10 to 25 | 1 to 10 |
| O=C(/C(=C\c1ccc(O)cc1)S(=O)(=O)Cc1ccc(F)cc1)c1ccc(Br)cc1 [Example 413] |  | 188 to 192 |  |  |  |
| COc1ccc(/C=C(\C(=O)c2ccc(Br)cc2)S(=O)(=O)Cc2ccc(F)cc2)cc1 [Example 415] |  | 121 to 123 |  |  |  |
| Cc1ccc(/C=C(\C(=O)c2ccc(Br)cc2)S(=O)(=O)Cc2ccc(F)cc2)s1 [Example 416] |  | 156 to 161 |  |  |  |

Further lines, results first:

| IC50 (DU145 (prostate cancer); Table 1) [µM] | melting point [°C] | IC50 ([1]; Table 1) [µM] | IC50 (DU145 (prostate cancer); Table 4) [µM] | IC50 ([1]; Table 4) [µM] | Structure (SMILES) |
| --- | --- | --- | --- | --- | --- |
|  | 115 to 117 |  | 10 to 25 | 25 to 50 | Cc1ccc(/C=C(\C(=O)c2ccc(Cl)cc2)S(=O)(=O)Cc2ccc(Cl)cc2Cl)s1 [Example 356] |
|  | 137 to 148 |  | 1 to 10 | 1 to 10 | O=C(/C(=C\c1ccccc1OCc1ccccc1)S(=O)(=O)Cc1ccccc1Cl)c1ccc(Cl)cc1 [Example 358] |
|  | 123 to 128 |  | 10 to 25 | 10 to 25 | CCOc1ccc(/C=C(\C(=O)c2ccc(Cl)cc2)S(=O)(=O)Cc2ccccc2Cl)cc1OC [Example 361] |
|  | 154 to 157 |  | 1 to 10 | 1 to 10 | COc1ccccc1/C=C(\C(=O)c1ccc(Cl)cc1)S(=O)(=O)Cc1ccc(Cl)c(Cl)c1 [Example 364] |
|  | 195 to 198 |  | 10 to 25 | 10 to 25 | O=C(/C(=C\c1ccc(O)cc1)S(=O)(=O)Cc1ccc(Cl)c(Cl)c1)c1ccc(Cl)cc1 [Example 366] |
|  | 146 to 148 |  | 1 to 10 | 1 to 10 | COc1ccc(C(=O)/C(=C\c2ccc(Br)cc2)S(=O)(=O)Cc2ccc(Br)cc2)cc1 [Example 371] |
|  | 110 to 112 |  | 10 to 25 | 1 to 10 | O=C(/C(=C\c1ccc(O)c([N+](=O)[O-])c1)S(=O)(=O)Cc1ccc(Br)cc1)c1ccc(Br)cc1 [Example 374] |
|  | 232 to 236 |  | > 100 | > 100 | O=C(/C(=C\c1c(O)cc(O)cc1O)S(=O)(=O)Cc1ccc(Cl)cc1)c1ccc(Cl)cc1 [Example 377] |
|  | 62 to 64 |  | 10 to 25 | 10 to 25 | COc1cc(OC)c(/C=C(\C(=O)c2ccc([N+](=O)[O-])cc2)S(=O)(=O)Cc2ccc(Cl)cc2)c(OC)c1 [Example 379] |
|  | 135 to 142 |  | 25 to 50 | 25 to 50 | COc1ccccc1/C=C(\C(=O)c1ccc(Cl)cc1)S(=O)(=O)Cc1ccc(Cl)cc1 [Example 383] |
|  | 146 to 152 |  | 1 to 10 | 1 to 10 | Cc1cc(C)cc(/C=C(\C(=O)c2ccc(Cl)cc2)S(=O)(=O)Cc2ccc(Cl)cc2)c1 [Example 385] |
|  | 128 to 136 |  | 50 to 100 | 25 to 50 | COc1ccsc1/C=C(\C(=O)c1ccc(Br)cc1)S(=O)(=O)Cc1ccc(Cl)cc1 [Example 387] |
|  | 130 to 139 |  | 25 to 50 | 25 to 50 | Cc1ccsc1/C=C(\C(=O)c1ccc(Cl)cc1)S(=O)(=O)Cc1ccc(Cl)cc1 [Example 388] |
|  | 174 to 179 |  | 1 to 10 | 1 to 10 | Cc1ccsc1/C=C(\C(=O)c1ccc([N+](=O)[O-])cc1)S(=O)(=O)Cc1ccc(Cl)cc1 [Example 389] |
|  | 148 to 152 |  | 1 to 10 | 1 to 10 | Cc1ccc(/C=C(\C(=O)c2ccc(Cl)cc2)S(=O)(=O)Cc2ccc(Cl)cc2)s1 [Example 396] |
|  | 180 to 182 |  | 25 to 50 | 10 to 25 | Cc1ccc(/C=C(\C(=O)c2ccc([N+](=O)[O-])cc2)S(=O)(=O)Cc2ccc(Cl)cc2)s1 [Example 397] |
|  | 65 to 72 |  | 25 to 50 | 25 to 50 | O=C(/C(=C\c1ccc(-c2ccccc2)cc1)S(=O)(=O)Cc1ccc(Cl)cc1)c1ccc(Cl)cc1 [Example 398] |
|  | 134 to 138 |  | 25 to 50 | 1 to 10 | COc1cc(OC)c(/C=C(\C(=O)c2ccc(Cl)cc2)S(=O)(=O)Cc2ccc(F)cc2)c(OC)c1 [Example 400] |
|  | 167 to 173 |  | 1 to 10 | 1 to 10 | Cc1ccc(C)c(/C=C(\C(=O)c2ccc(Br)cc2)S(=O)(=O)Cc2ccc(F)cc2)c1 [Example 401] |
|  | 145 to 151 |  |  |  | COc1ccccc1/C=C(\C(=O)c1ccc(Br)cc1)S(=O)(=O)Cc1ccc(F)cc1 [Example 404] |
|  | 140 to 143 |  | 10 to 25 | 10 to 25 | Cc1cc(C)cc(/C=C(\C(=O)c2ccc(Br)cc2)S(=O)(=O)Cc2ccc(F)cc2)c1 [Example 405] |
|  | 155 to 162 |  | 50 to 100 | 50 to 100 | CN(C)c1ccc(/C=C(\C(=O)c2ccc(Br)cc2)S(=O)(=O)Cc2ccc(F)cc2)cc1 [Example 408] |
|  | 116 to 120 |  |  |  | Cc1ccc(/C=C(\C(=O)c2ccc(Cl)cc2)S(=O)(=O)Cc2ccc(F)cc2)s1 [Example 417] |
|  | 60 to 62 |  |  |  | COc1ccc(CS(=O)(=O)/C(=C/c2c(OC)cc(OC)cc2OC)C(=O)c2ccc(OC)cc2)cc1 [Example 422, (E)-1-(4-methoxyphenyl)-2-(4-methoxybenzylsulfonyl)-3-(2,4,6-trimethoxyphenyl)-prop-2-en-1-one] |
